According to US4008219A, “4-Benzazonine derivatives and process for preparation thereof” (Nihon Iyakuhin Kogyo Co., Ltd., priority 1973, dated 1977):

Key:
[1] = tested on: mice of the ddN-series; test: Analgesic test, Chemical Stimulus Method (Writhing Method); type: in vivo, mouse; set-up: scale not given here; details: interabdominal injection, comparative value, scale not given
Method: (§1) Results of comparative tests where the medicinal effects of compounds of this invention were compared with those of known compounds such as pentazocine and codeine phosphate by employing mice and guinea pigs as the test animals are shown in the following Tables I and II.
Chemical Stimulus Method^1)
(interabdominal injection)
(§2) Tested Animal: mice of the ddN-series, .male., 20 ± 1 experimental
(§3) Conditions: temperature of 24 ± 1° C., relative humidity of 65
^1) R. Koster, M. Anderson and E. J. De Beer, Federation Proceedings, […]

[2] = tested on: mice of the ddN-series; test: Analgesic test, Heat Stimulus Method (Hot Plate Method); type: in vivo, mouse; set-up: reference not given here; details: hypodermic injection, comparative value, scale not given
Method: as §1
Heat Stimulus Method^2)
as §2, §3
^2) G. Woolfe and A. D. Mac Donald; Journal of Pharmacology and […]

[3] = tested on: mice of the ddN-series; test: Analgesic test, Pressure Stimulus Method; type: in vivo, mouse; details: hypodermic injection, comparative value, pentazocine 1.0
Method: as §1
Pressure Stimulus Method^3)
R (hypodermic injection)
as §2, §3
^3) A. F. Green, P. A. Yound and E. I. Godfrey; British Journal of
Pharmacology and Chemotherapy, 6, 572 (1951)

[4] = Acute Toxicity; details: in vivo; mouse, intravenous injection
Method: as §2, §3

[5] = tested on: guinea pigs; test: Antitussive effect, Mechanical Stimulus Method; type: in vivo, guinea pig; details: for ED50: Cavia porcellus, swine hairs inserted into the trachea; for Effect Ratio to Codeine Phosphate, Mechanical Stimulus Method: codeine phosphate = 100
Excerpt: as §1
(§4) Comparison of Antitusive Effects
Mechanical Stimulus Method^1)
1) Takagi et al modification [Journal of the Pharmaceutical Society of
Japan, 80, 1497 (1960)] of the test method of H. Konzett and E. Rothlin
[Experientia, 10, 472 (1954)], in which urethane was hypodermically
injected (15 mg/Kg) into guinea pigs and swine hairs were inserted into
the trachea to impart stimulus.

[6] = tested on: guinea pigs; test: Antitussive effect, Chemical Stimulus Method (SO2 gas); type: in vivo, guinea pig; details: for ED50: Cavia porcellus, sc, 0.5 h, read-out: ED50, Chemical Stimulus Method (antitussive); for Effect Ratio to Codeine Phosphate, Chemical Stimulus Method: codeine phosphate = 100
Excerpt: as §1, §4
2) Takagi et al modification [Journal of Pharmaceutical Society of Japan,
80, 1497 (1960)] of the test method of H. Friebel, C. Reichle and A. V.
Gravenitz [Archiv Fur experimentalle Phathologie und Pharmakologie,
Naunyn-Schmiede-berg's, 224,384 (1955)], in which the test compound was
hypodermically injected into guinea pigs, 30 minutes after the injection
the quinea pigs were put into a desiccator filled with SO2 gas and
kept in the desiccator for 1 minute, then the guinea pigs were put into
another vessel and the degree of coughing was examined.

[7] = guinea pigs, hypodermic injection, SO2 gas, 1 minute, 30 minutes after injection

SMILES | Chemical Stimulus Method (Writhing Method) [1] | Heat Stimulus Method (Hot Plate Method) [2] | Pressure Stimulus Method [3] | LD50 [4] [mg/kg] | ED50 [5] [mg/kg] | Effect Ratio to Codeine Phosphate, Mechanical Stimulus Method [5] | ED50 [6, 7] [mg/kg] | Effect Ratio to Codeine Phosphate, Chemical Stimulus Method ([6]; guinea pigs, SO2 gas) | ED50 [6] [mg/kg]
C=CCN1CCC2CC(Cc3ccccc32)C1 (stereo not drawn) [R=H, R1=H, R2=H, CH2R3=CH2CHCH2, R4=H, 4-allyl-2,3,4,5,6,7-hexahydro-1,6-methano-1H-4-benzazonine] | 1.4 | 5.0 | 1.5 | 45 | 7.42 | 195.0 | 12.7 | 104.7 | 
CCN1CCC2(C)CC(Cc3ccc(OC)cc32)C1 (stereo not drawn) [R=CH3O, R1=CH3, R2=H, CH2R3=CH2CH3, R4=H] | 0.8 | 2.0 |  | 120 |  |  |  |  | 
COc1ccc2c3c1O[C@H]1[C@@H](O)CC[C@H]4[C@@H](C2)N(C)CC[C@@]341 [dihydrocodeine phosphate, reference compound] |  |  |  |  | 4.65 |  |  |  | 2.65
c1ccc(CN2CCC3CC(Cc4ccccc43)C2)cc1 (stereo not drawn) [R=H, R1=H, R2=H, CH2R3=drawing 42, R4=H] | 1.0 | 3.0 |  | 120 |  |  |  |  | 
COc1ccc2c(c1)C1(C)CCN(C)CC(C2)C1 (stereo not drawn) [R=CH3O, R1=CH3, R2=H, CH2R3=CH3, R4=H] | 0.8 | 2.0 |  | 120 |  |  |  |  | 
COc1ccc2c3c1O[C@H]1[C@@H](O)C=C[C@H]4[C@@H](C2)N(C)CC[C@@]341 [codeine phosphate, reference compound] |  |  |  |  | 14.5 |  | 13.3 |  | 
C=CCN1CCC2(C)CC(C1)C(O)c1ccc(OC)cc12 (stereo not drawn) | 1.4 | 1.6 |  | 61 |  |  |  |  | 
CCN1CCC2(C)CC(Cc3ccc(O)cc32)C1 (stereo not drawn) [R=HO, R1=CH3, R2=H, CH2R3=CH2CH3, R4=H] | 1.5 | 2.0 |  | 80 |  |  |  |  | 
CN1CCC2(C)CC(C1)C(O)c1ccccc12 (stereo not drawn) [R=H, R1=CH3, R2=H, CH2R3=CH3, R4=OH, 1,4-dimethyl-2,3,4,5,6,7-hexahydro-1,6-methano-1H-4-benzazonin-7-ol] | 0.7 | 1.4 | 1.2 | 70 | 4.42 | 326.9 | 1.64 | 800.7 | 
CC(C)=CCN1CCC2(C)CC(Cc3ccc(O)cc32)C1 (stereo not drawn) [R=HO, R1=CH3, R2=H, CH2R3=drawing 43, R4=H] | 1.0 | 1.5 |  | 40 |  |  |  |  | 
COc1ccc2c(c1)C1(C)CCN(CCc3ccccc3)CC(C1)C2O (stereo not drawn) | 1.6 | 2.2 | 1.8 | 45 |  |  |  |  | 
COc1ccc2c(c1)C1(C)CCN(CCc3ccccc3)CC(C2)C1 (stereo not drawn) [R=CH3O, R1=CH3, R2=H, CH2R3=drawing 44, R4=H] | 1.5 | 2.0 |  | 48 |  |  |  |  | 
C=CCN1CCC2(C)CC(C1)C(O)c1ccccc12 (stereo not drawn) [R=H, R1=CH3, R2=H, CH2R3=CH2CHCH2, R4=OH] | 1.8 | 1.5 | 2.0 | 55 |  |  |  |  | 
CC1C2CN(C)CCC1(C)c1ccccc1C2O (stereo not drawn) [R=H, R1=CH3, R2=CH3, CH2R3=CH3, R4=OH] | 1.6 | 2.0 | 1.5 | 30 |  |  |  |  | 
CN1CCC2CC(Cc3ccccc32)C1 (stereo not drawn) [R=H, R1=H, R2=H, CH2R3=CH3, R4=H, 4-methyl-2,3,4,5,6,7-hexahydro-1,6-methano-1H-4-benzazonine] | 2.5 | 0.6 |  | 20 |  |  |  |  | 
c1ccc(CCN2CCC3CC(Cc4ccccc43)C2)cc1 (stereo not drawn) [R=H, R1=H, R2=H, CH2R3=drawing 41, R4=H] | 0.8 | 5.0 | 2.0 | 35 |  |  |  |  | 
CCN1CCC2(C)c3cc(OC)ccc3CC(C1)C2C (stereo not drawn) | 0.8 | 2.0 |  | 100 |  |  |  |  | 
CC(C)=CCN1CCC2CC(Cc3ccccc32)C1 (stereo not drawn) [R=H, R1=H, R2=H, CH2R3=drawing 40, R4=H] | 1.0 | 1.5 | 1.4 | 65 |  |  |  |  | 
CC(C)=CCN1CCC2(C)CC(C1)C(O)c1ccccc12 (stereo not drawn) [R=H, R1=CH3, R2=H, CH2R3=drawing 38, R4=OH] | 1.5 | 1.5 | 1.6 | 25 |  |  |  |  | 
CC(C)CCN1CCC2(C)CC(Cc3ccc(O)cc32)C1 (stereo not drawn) [R=HO, R1=CH3, R2=H, CH2R3=drawing 45, R4=H] | 1.0 | 1.5 |  | 40 |  |  |  |  | 
OC1c2ccccc2C2CCN(CCc3ccccc3)CC1C2 (stereo not drawn) [R=H, R1=H, R2=H, CH2R3=drawing 37, R4=OH] | 1.8 | 4.5 | 2.0 | 45 |  |  |  |  | 
CC(C)=CCN1CCC2(C)c3cc(O)ccc3CC1C2C (stereo not drawn) [pentazocine, 1,2,3,4,5,6-hexahydro-3-(3-methyl-2-butenyl)-6, 11-dimethyl-8-hydroxy-2,6-methano-3-benzazonine, reference compound] |  |  | 1.0 | 25 |  |  |  |  | 
COc1ccc2c(c1)C1(C)CCN(C)CC(C1)C2O (stereo not drawn) [R=CH3O, R1=CH3, R2=H, CH2R3=CH3, R4=OH, 1,4-dimethyl-10-methoxy-2,3,4,5,6,7-hexahydro-1,6-methano-1H-4-benzazonin-7-ol] | 1.5 | 5.0 | 1.2 | 72 | 13.7 | 105.5 | 6.06 | 218.8 | 
CN1CCC2(C)CC(Cc3ccc(O)cc32)C1 (stereo not drawn) [R=HO, R1=CH3, R2=H, CH2R3=CH3, R4=H, 1,4-dimethyl-10-hydroxy-2,3,4,5,6,7-hexahydro-1,6-methano-1H-4-benzazonine] | 1.5 | 2.0 |  | 75 |  |  |  |  | 
CN1CCC2CC(C1)C(O)c1ccccc12 (stereo not drawn) [R=H, R1=H, R2=H, CH2R3=CH3, R4=OH, 4-methyl-2,3,4,5,6,7-hexahydro-1,6-methano-1H-4-benzazonin-7-ol] |  |  |  |  | 9.21 | 157.1 | 6.58 | 201.4 | 
CC(C)=CCN1CCC2CC(C1)C(O)c1ccccc12 (stereo not drawn) [R=H, R1=H, R2=H, CH2R3=drawing 36, R4=OH] | 1.2 | 1.2 | 1.4 | 60 |  |  |  |  | 
